Test results: ChEMBL document CHEMBL1124760, “Antirhinovirus activity of 6-anilino-9-benzyl-2-chloro-9H-purines” (J Med Chem, 1990)

Experiments:
Type in all cases: functional, organism-based
rhinovirus A1B = experiment: Inhibitory activity against rhinovirus type 1B; details: Rhinovirus A
rhinovirus A2 = experiment: Evaluated for inhibitory activity against rhinovirus type 2; details: Rhinovirus A
rhinovirus B4 = experiment: Evaluated for inhibitory activity against rhinovirus type 4; details: Rhinovirus B
rhinovirus B5 = experiment: Evaluated for inhibitory activity against rhinovirus type 5; details: Rhinovirus B

IC50 (rhinovirus A1B) [µM]	IC50 (rhinovirus A2) [µM]	IC50 (rhinovirus B4) [µM]	IC50 (rhinovirus B5) [µM]	SMILES
> 10	–	–	–	CCOC(=O)c1ccc(Nc2nc(Cl)nc3c2ncn3Cc2ccccc2)cc1
> 40	–	–	–	CS(=O)(=O)c1cccc(Nc2nc(Cl)nc3c2ncn3Cc2ccccc2)c1
> 10	–	–	–	CCOC(=O)c1cccc(Nc2nc(Cl)nc3c2ncn3Cc2ccccc2)c1
0.3	1.2	–	–	Cc1ccc(Nc2nc(Cl)nc3c2ncn3Cc2ccccc2)cc1
1	3.9	6.4	> 8	Cc1ccc(Cn2cnc3c(Nc4ccccc4)nc(Cl)nc32)cc1
9.4	–	–	–	N#Cc1ccc(Nc2nc(Cl)nc3c2ncn3Cc2ccccc2)cc1
> 20	–	–	–	CC(=O)Nc1ccc(Nc2nc(Cl)nc3c2ncn3Cc2ccccc2)cc1
1.3	–	–	–	CC(=O)Nc1cccc(Nc2nc(Cl)nc3c2ncn3Cc2ccccc2)c1
> 20	–	–	–	Nc1ccc(Nc2nc(Cl)nc3c2ncn3Cc2ccccc2)cc1
22	–	–	–	CCCCOc1cccc(Nc2nc(Cl)nc3c2ncn3Cc2ccccc2)c1
2	3.6	8.3	–	CC(C)Oc1cccc(Nc2nc(Cl)nc3c2ncn3Cc2ccccc2)c1
1.2	5.6	5.5	5.6	Fc1cccc(Nc2nc(Cl)nc3c2ncn3Cc2ccccc2)c1
0.14	11	8.7	–	CSc1ccc(Nc2nc(Cl)nc3c2ncn3Cc2ccccc2)cc1
> 10	–	–	–	Nc1cccc(Nc2nc(Cl)nc3c2ncn3Cc2ccccc2)c1
1.9	2.7	5.1	> 8	Cc1ccc(Cn2cnc3c(N(C)c4ccccc4)nc(C(F)(F)F)nc32)cc1
0.03	–	–	–	Cc1ccc(Cn2cnc3c(N(C)C)nc(C(F)(F)F)nc32)cc1
0.3	2.2	7.8	9.5	Clc1nc(Nc2ccc(Br)cc2)c2ncn(Cc3ccccc3)c2n1
> 40	–	–	–	CN(C)c1ccc(Nc2nc(Cl)nc3c2ncn3Cc2ccccc2)cc1
0.3	16.6	85	200	FC(F)(F)c1ccc(Nc2nc(Cl)nc3c2ncn3Cc2ccccc2)cc1
1.65	8.3	14.2	16.3	Clc1nc(Nc2ccccc2)c2ncn(Cc3ccccc3)c2n1
> 10	–	–	–	O=[N+]([O-])c1cccc(Nc2nc(Cl)nc3c2ncn3Cc2ccccc2)c1
2.9	2.8	5.7	7.6	Clc1nc(Nc2cccc(Br)c2)c2ncn(Cc3ccccc3)c2n1
2.4	3.1	8.4	8.5	CN(C)c1cccc(Nc2nc(Cl)nc3c2ncn3Cc2ccccc2)c1
> 40	–	–	–	CC(C)Oc1ccc(Nc2nc(Cl)nc3c2ncn3Cc2ccccc2)cc1
> 40	–	–	–	CCCCOc1ccc(Nc2nc(Cl)nc3c2ncn3Cc2ccccc2)cc1
> 10	–	–	–	CCCCc1ccc(Nc2nc(Cl)nc3c2ncn3Cc2ccccc2)cc1
1.28	6.2	6.8	10	Fc1ccc(Nc2nc(Cl)nc3c2ncn3Cc2ccccc2)cc1
2	10.5	4.5	–	CS(=O)(=O)c1ccc(Nc2nc(Cl)nc3c2ncn3Cc2ccccc2)cc1
